How the values were obtained:
[1] = system: xenograft models; settings: in vivo, Buggy et al. 2006; cited from earlier work
[2] = system: colorectal cancer, a pancreatic cancer or a gastric cancer; experiment: Clinical study of the association with FOLFOX; format: in vivo; settings: patients previously treated by FOLFOX
Protocol: A clinical study for testing the association of N-hydroxy-4-{2-[3-(N,N-dimethylamino-methyl)benzofuran-2-ylcarbonylamino]ethoxy}benzamide with FOLFOX is carried out on a maximum of 60 patients. Patients included in the study suffer from a colorectal cancer, a pancreatic cancer or a gastric cancer, and they have been treated by a treatment based on FOLFOX (i.e., alone or in association with other treatments) prior to their inclusion. More precisely, the study consists of 14-day cycles, each of the cycles being performed as follows: N-hydroxy-4-{2-[3-(N,N-dimethylaminomethyl)benzofuran-2-ylcarbonylamino]ethoxy}benzamide (in the form of a hydrochloride salt) is administered for 4 consecutive days whilst oxaliplatin and folinic acid are administered simultaneously on the third day, at the end of infusion of which 5-fluorouracil is administered continuously until the fifth day. […] At the end of a treatment cycle, the toxicity of the regimen associating N-hydroxy-4-{2-[3-(N,N-dimethylaminomethyl)benzofuran-2-ylcarbonylamino]ethoxy}benzamide and FOLFOX is assessed. […] Every four cycles, the efficacy of the treatment is assessed by evaluating the tumour response (CT scan, MRI, etc.). The acceptability profile is also evaluated (especially haematologic and cardiac toxicity).

[3] = system: cultured tumour cells; settings: cultured tumour cells in vitro; Buggy et al. 2006; cited from earlier work
[4] = system: histone deacetylase (HDAC); settings: described in WO2004/092115; cited from earlier work

CN(C)Cc1c(C(=O)NCCOc2ccc(C(=O)NO)cc2)oc2ccccc12 [N-hydroxy-4-{2-[3-(N,N-dimethylaminomethyl)benzofuran-2-ylcarbonylamino]ethoxy}benzamide]
tumour growth [1]: inhibits tumour growth
efficacy of the treatment (tumour response) of the association with FOLFOX ([2]; hydrochloride salt p.o., 160-360 mg daily, 4 consecutive days, in association with FOLFOX, 14-day cycles): promising
reversal of resistance to FOLFOX [2]: reverse the resistance to FOLFOX
apoptosis [3]: induces apoptosis
cell growth [3]: inhibition of cell growth
HDAC inhibition [4]: powerful histone deacetylase (HDAC) inhibitor
